# Data as given in patent US4738983A, “Ethylenediamine and guanidine-derivatives” (Degussa aktiengesellschaft, priority 1982, dated 1988).
# Test system: carbachol spasm of the rat stomach
# Experiment: carbachol spasm of the rat stomach (stomach-spasmolytic effect)
# Format: in vivo
# Conditions: intraduodenal, relative to Ranitidin
# Excerpt: The test substances are applied intraduodenally. In this model, the stomach-spasmolytic effect of the compound according to Example 1 is, for example 3.8 times greater than that of "Ranitidin".
smiles,measurement,value
"CNC(=C[N+](=O)[O-])NCCSCc1ccc(CNC2C3CC4C(C3)C42)o1 (stereo not shown) [Example 1, N-[2-[[5-(tricyclo(2.2.1.0^2.6)hept-3-yl-amino-methyl)-2-furanyl]-methylthio]-ethyl]-N'-methyl-2-nitro-1,1-ethylene-diamine]","stomach-spasmolytic effect, times greater than that of Ranitidin",3.8 times
